Laboratory results: publication PMC6832503, “Synthesis of Novel Nicotinic Ligands with Multimodal Action: Targeting Acetylcholine α4β2, Dopamine and Serotonin Transporters” (Molecules, 2019)
Counter-ions that a name gives are not always drawn.

Assays:
α4β2 nAChR = target: T1, α4β2 nAChR (Rattus norvegicus, UniProt P09483+P12390); conditions: bupropion included as comparative value, not used in the trial; cited from earlier work
T1 construct: the rat complete brain P1 fraction (occupying 2 mg of wet tissue for each assay); from tissue; host or cells: whole rat brain, synaptosome pellet (fraction P1)
T1 sequence (P09483 31-630): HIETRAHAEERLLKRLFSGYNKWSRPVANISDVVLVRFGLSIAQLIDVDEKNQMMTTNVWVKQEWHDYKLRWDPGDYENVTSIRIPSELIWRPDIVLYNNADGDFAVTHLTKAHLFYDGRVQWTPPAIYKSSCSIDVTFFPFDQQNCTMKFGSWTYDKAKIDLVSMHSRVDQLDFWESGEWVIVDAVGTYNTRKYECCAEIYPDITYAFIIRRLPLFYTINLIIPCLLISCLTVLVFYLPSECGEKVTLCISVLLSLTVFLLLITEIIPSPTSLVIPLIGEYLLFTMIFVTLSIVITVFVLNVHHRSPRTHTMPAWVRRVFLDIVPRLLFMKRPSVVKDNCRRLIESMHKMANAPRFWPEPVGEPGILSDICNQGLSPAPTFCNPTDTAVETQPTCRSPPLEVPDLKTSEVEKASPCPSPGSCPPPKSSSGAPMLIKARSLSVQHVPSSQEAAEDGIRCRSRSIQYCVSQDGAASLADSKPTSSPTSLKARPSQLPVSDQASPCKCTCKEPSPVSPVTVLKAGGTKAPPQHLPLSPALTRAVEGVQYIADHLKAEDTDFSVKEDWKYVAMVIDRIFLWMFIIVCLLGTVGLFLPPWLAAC
T1 sequence (P12390 25-500): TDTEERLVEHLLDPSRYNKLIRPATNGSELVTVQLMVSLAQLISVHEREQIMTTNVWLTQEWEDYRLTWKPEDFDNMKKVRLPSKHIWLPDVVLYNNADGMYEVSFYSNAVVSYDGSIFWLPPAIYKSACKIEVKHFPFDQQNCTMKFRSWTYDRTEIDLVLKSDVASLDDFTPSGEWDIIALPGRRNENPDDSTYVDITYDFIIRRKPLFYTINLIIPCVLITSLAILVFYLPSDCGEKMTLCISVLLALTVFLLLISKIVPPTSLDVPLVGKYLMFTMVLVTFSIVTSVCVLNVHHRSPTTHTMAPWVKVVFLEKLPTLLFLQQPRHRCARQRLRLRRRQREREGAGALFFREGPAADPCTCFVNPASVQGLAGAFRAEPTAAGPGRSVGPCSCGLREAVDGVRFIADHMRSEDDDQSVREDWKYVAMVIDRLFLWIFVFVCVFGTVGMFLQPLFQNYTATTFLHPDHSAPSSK

## CN1CCCC1CCOC(=O)c1cccc(F)c1 (racemic) (as salt: hydrochloride) [Compound 8, (±)-2-(1-Methyl-2-pyrrolidinyl)ethyl 3-fluorobenzoate]
other
  melting point: 106.8 to 107.5 °C

## CN1CCCC1CCOC(=O)c1cccc(Cl)c1 (racemic) (as salt: hydrochloride) [Compound 9, (±)-2-(1-Methyl-2-pyrrolidinyl)ethyl 3-chlorobenzoate]
other
  melting point: 144.7 to 146.2 °C

## CN1CCCC1CCOC(=O)Cc1ccccc1 (racemic) (as salt: hydrochloride) [Compound 16, (±)-2-(-1-Methyl-2-pyrrolidinyl)ethyl 2-phenylacetate]
other
  melting point: 86.7 to 87.4 °C

## CN1CCCC1CCOC(=O)c1ccc2ccccc2c1 (racemic) (as salt: hydrochloride) [Compound 19, (±)-2-(1-Methyl-2-pyrrolidinyl)ethyl 2-naphthoate]
other
  melting point: 155.6 to 157.4 °C

## CN1CCCC1CCOC(=O)C(c1ccccc1)c1ccccc1 (racemic) (as salt: hydrochloride) [Compound 21, (±)-2-(-1-Methyl-2-pyrrolidinyl)ethyl 2,2-diphenylacetate]
other
  melting point: 115.3 to 117.2 °C

## CC(NC(C)(C)C)C(=O)c1cccc(Cl)c1 (stereo not drawn) [Bupropion]
α4β2 nAChR
  Ki: 10 µM
